US11478451B1, “Macrocyclic chlorine substituted indole derivatives” (Bayer Aktiengesellschaft, priority 2017, dated 2022)
Where a name gives a salt, the structure may show the parent alone. Read-outs that look alike come from different tables or passages of the source.

Key:
[1] = test system: HMC-1-8 cells; experiment: Antiproliferation assay (CellTiter-Glo, 72 h), HMC-1-8; assay type: cell-based; conditions: IC50, median, HMC-1-8, 72 h, read-out: Antiproli HMC-1-8 [M] median
Outline: (§1)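 A reference plate measured at day 0 set the time-zero baseline. Treated plates were read by CellTiter-Glo luminescence after 72 h of compound exposure at 37°C in a humidified incubator.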

[2] = test system: SUDHL10 cells; experiment: Induction of caspase-3/7 activity (Caspase-Glo 3/7), SUDHL10; assay type: cell-based; conditions: EC50, median, SUDHL10, 3 h treatment
Outline: (§2)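 Caspase-3/7 activation measured by Caspase-Glo 3/7 after a 3 h compound exposure of diffuse large B-cell lymphoma cells at 37 °C. Values corrected by subtracting the medium-only background.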

[3] = test system: SUDHL5 cells; experiment: Antiproliferation assay (CellTiter-Glo, 72 h), SUDHL5; assay type: cell-based; conditions: IC50, median, SUDHL5, 72 h, read-out: Antiproli SUDHL5 [M] (median)
Outline: as §1

[4] = test system: SUDHL5 cells; experiment: Induction of caspase-3/7 activity (Caspase-Glo 3/7), SUDHL5; assay type: cell-based; conditions: EC50, median, SUDHL5, 3 h treatment
Outline: as §2

[5] = test system: SUDHL10 cells; experiment: Induction of cytotoxicity (CellTiter-Glo, 5 h), SUDHL10; conditions: SUDHL10, 5 h
[6] = test system: AMO-1 cells; experiment: Antiproliferation assay (CellTiter-Glo, 72 h), AMO-1; assay type: cell-based; conditions: IC50, median, AMO-1, 72 h, read-out: Antiproli AMO-1 [M] median
Outline: as §1

[7] = test system: SUDHL5 cells; experiment: Induction of cytotoxicity (CellTiter-Glo, 5 h), SUDHL5; conditions: SUDHL5, 5 h
[8] = read-out: Cytotox SUDHL10 [M] (median), IC50, median
[9] = read-out: Cytotox SUDHL5 [M] (median), IC50, median
[10] = Homo sapiens, SU-DHL10, 5 h, read-out: Cytotox SUDHL10 [M] (median), IC50, median
[11] = Homo sapiens, SU-DHL-5, 5 h, read-out: Cytotox SUDHL5 [M] (median), IC50, median

| SMILES | EC50 [2] [nM] | IC50 [3] [M] | EC50 [4] [nM] | IC50 [5, 8] [M] | IC50 [7, 9] [M] | IC50 ([1]; 72 h) [M] | EC50 ([2]; Homo sapiens, SU-DHL10, 3 h) [nM] | IC50 ([3]; Homo sapiens, SU-DHL-5, 72 h) [M] | EC50 ([4]; Homo sapiens, SU-DHL-5, 3 h) [nM] | IC50 [5, 10] [M] | IC50 ([6]; Homo sapiens, AMO1, 72 h) [M] | IC50 [7, 11] [M] | other results |
| --- | --- | --- | --- | --- | --- | --- | --- | --- | --- | --- | --- | --- | --- |
| CCc1c2c(nn1C)CCCN(CC(F)F)CCn1c(C(=O)O)c(CCCOc3cccc4cc(F)ccc34)c3ccc(Cl)c-2c31 [Example 119, (+)-4-chloro-12-(2,2-difluoroethyl)-3-ethyl-7-{3-[(6-fluoronaphthalen-1-yl)oxy]propyl}-2-methyl-10,11,12,13,14,15-hexahydro-2H-pyrazolo[3′,4′:8,9][1,4]diazacycloundecino[10,11,1-hi]indole-8-carboxylic acid N-ethylethanamine salt] | 210 | 3.1e-07 | 110 | 2.9e-07 | 1.4e-07 | – | – | – | – | – | – | – | IC50 [1]: 1.3e-06 M; IC50 [6]: 3.6e-07 M |
| CCc1c2c(nn1C)CN(C)CCCn1c(C(=O)O)c(CCCOc3cccc4cc(F)ccc34)c3ccc(Cl)c-2c31 [Example 113, (+)-12-chloro-11-ethyl-1-{3-[(6-fluoronaphthalen-1-yl)oxy]propyl}-7,10-dimethyl-4,5,6,7,8,10-hexahydropyrazolo[3′,4′:7,8][1,5]diazecino[9,10,1-hi]indole-2-carboxylic acid N-ethylethanamine salt] | 360 | 2.1e-06 | 270 | 6.5e-07 | 3e-07 | – | – | – | – | – | – | – | IC50 [1]: 3.7e-06 M; IC50 [6]: 3.2e-07 M |
| CCc1c2c(nn1C)COCCC(F)(F)Cn1c(C(=O)O)c(CCCOc3cccc4cc(F)ccc34)c3ccc(Cl)c-2c31 (racemic) [Example 96, (rac)-4-chloro-3-ethyl-11,11-difluoro-7-{3-[(6-fluoronaphthalen-1-yl)oxy]propyl}-2-methyl-2,10,11,12,13,15-hexahydropyrazolo[4′,3′:9,10][1,6]oxazacycloundecino[8,7,6-hi]indole-8-carboxylic acid] | – | – | – | – | – | 5.3e-06 | 210 | 3.1e-07 | 480 | 3.5e-07 | 4.9e-07 | 4.7e-07 | – |
| CCc1c2c(nn1C)CN(C)CC(F)(F)CCn1c(C(=O)O)c(CCCOc3cccc4cc(F)ccc34)c3ccc(Cl)c-2c31 (racemic) [Example 126, (rac)-4-Chloro-3-ethyl-12,12-difluoro-7-{3-[(6-fluoro-1-naphthyl)oxy]propyl}-2,14-dimethyl-10,11,12,13,14,15-hexahydro-2H-pyrazolo[3′,4′:8,9][1,6]diazacycloundecino[10,11,1-hi]indol-14-ium-8-carboxylate] | – | – | – | – | – | 2.2e-06 | 720 | 8.8e-07 | 420 | 8.7e-07 | 3.7e-07 | 5e-07 | – |
| Cc1c2c(nn1C)COCCC(F)(F)Cn1c(C(=O)O)c(CCCOc3cccc4ccccc34)c3ccc(Cl)c-2c31 [Example 95, 4-chloro-11,11-difluoro-2,3-dimethyl-7-{3-[(naphthalen-1-yl)oxy]propyl}-2,10,11,12,13,15-hexahydropyrazolo[4′,3′:9,10][1,6]oxazacycloundecino[8,7,6-hi]indole-8-carboxylic acid N-ethylethanamine salt] | – | – | – | – | – | – | – | 1e-06 | – | – | 9.7e-07 | – | IC50 ([1]; listed as 095): 7.2e-06 M; EC50 ([2]; listed as 095): 870 nM; EC50 ([4]; listed as 095): 550 nM; IC50 ([5]; read-out: Cytotox SUDHL10 [M] (median), IC50, median, listed as 095): 4.5e-07 M; IC50 ([7]; read-out: Cytotox SUDHL5 [M] (median), IC50, median, listed as 095): 7.7e-07 M |
| Cc1c2c(nn1C)COCC(F)(F)CCn1c(C(=O)O)c(CCCOc3cccc4cc(F)ccc34)c3ccc(Cl)c-2c31 (single isomer, unassigned) [Example 92, 4-chloro-12,12-difluoro-7-{3-[(6-fluoronaphthalen-1-yl)oxy]propyl}-2,3-dimethyl-2,10,11,12,13,15-hexahydropyrazolo[4′,3′:9,10][1,6]oxazacycloundecino[8,7,6-hi]indole-8-carboxylic acid] | – | – | – | – | – | 6.8e-06 | 590 | 8.2e-07 | 280 | 8.1e-07 | 5.4e-07 | 3.4e-07 | – |
| CCc1c2c(nn1C)COCCC(F)(F)Cn1c(C(=O)O)c(CCCOc3cccc4cc(F)ccc34)c3ccc(Cl)c-2c31 (single isomer, unassigned) [Example 97, (−)-4-chloro-3-ethyl-11,11-difluoro-7-{3-[(6-fluoronaphthalen-1-yl)oxy]propyl}-2-methyl-2,10,11,12,13,15-hexahydropyrazolo[4′,3′:9,10][1,6]oxazacycloundecino[8,7,6-hi]indole-8-carboxylic acid] | – | – | – | – | – | – | – | – | – | – | – | – | IC50 ([1]; listed as 097): 2.2e-06 M; EC50 ([2]; listed as 097): 450 nM; IC50 ([3]; listed as 097): 5.5e-07 M; EC50 ([4]; listed as 097): 320 nM; IC50 ([5]; read-out: Cytotox SUDHL10 [M] (median), IC50, median, listed as 097): 4.2e-07 M; IC50 ([6]; listed as 097): 2.2e-07 M; IC50 ([7]; read-out: Cytotox SUDHL5 [M] (median), IC50, median, listed as 097): 4.4e-07 M |
| CCc1c2c(nn1C)COCC1(CCn3c(C(=O)O)c(CCCOc4cccc5ccccc45)c4ccc(Cl)c-2c43)CC1 (single isomer, unassigned; enantiomer 2) [Example 74, (+)-4′-chloro-3′-ethyl-2′-methyl-7′-{3-[(naphthalen-1-yl)oxy]propyl}-2′,10′,11′,15′-tetrahydro-13′H-spiro[cyclopropane-1,12′-pyrazolo[4′,3′:9,10][1,6]oxazacycloundecino[8,7,6-hi]indole]-8′-carboxylic acid-N-ethylethanamine salt (Enantiomer 2)] | – | – | – | – | – | 9.4e-06 | 570 | 7.6e-07 | 140 | 4e-07 | 1.3e-06 | 4.1e-07 | – |
| Cc1c2c(nn1C)CN(CC(F)(F)F)CCCCn1c(C(=O)O)c(CCCOc3cccc4cc(F)ccc34)c3ccc(Cl)c-2c31 (racemic) [Example 58, (rac)-4-chloro-7-{3-[(6-fluoronaphthalen-1-yl)oxy]propyl}-2,3-dimethyl-14-(2,2,2-trifluoroethyl)-10,11,12,13,14,15-hexahydro-2H-pyrazolo[3′,4′:8,9][1,6]diazacycloundecino[10,11,1-hi]indole-8-carboxylic acid] | – | – | – | – | – | 5.8e-06 | 1500 | 6.2e-07 | 510 | 2e-06 | 1.7e-06 | 8.4e-07 | – |
| CCc1c2c(nn1C)COCC(O)CCn1c(C(=O)O)c(CCCOc3cccc4cc(F)ccc34)c3ccc(Cl)c-2c31 (stereo not drawn) [Example 99, 4-chloro-3-ethyl-7-{3-[(6-fluoronaphthalen-1-yl)oxy]propyl}-12-hydroxy-2-methyl-2,10,11,12,13,15-hexahydropyrazolo[4′,3′:9,10][1,6]oxazacycloundecino[8,7,6-hi]indole-8-carboxylic acid-N-ethylethanamine salt] | 180 | – | 190 | 2.3e-07 | 2.7e-07 | 5.9e-06 | – | 2.6e-07 | – | – | 5.2e-07 | – | – |
| CCc1c2c(nn1C)CCCN(C)CCn1c(C(=O)O)c(CCCOc3cccc4cc(F)ccc34)c3ccc(Cl)c-2c31 (single isomer, unassigned) [Example 116, (+)-4-chloro-3-ethyl-7-{3-[(6-fluoronaphthalen-1-yl)oxy]propyl}-2,12-dimethyl-10,11,12,13,14,15-hexahydro-2H-pyrazolo[3′,4′:8,9][1,4]diazacycloundecino[10,11,1-hi]indole-8-carboxylic acid] | 290 | 3.4e-07 | 290 | 3.4e-07 | 4.1e-07 | 2.3e-06 | – | – | – | – | – | – | IC50 [6]: 2.1e-07 M |
| CCc1c2c(nn1C)CCCN(CC(F)F)CCn1c(C(=O)O)c(CCCOc3cccc4cc(F)ccc34)c3ccc(Cl)c-2c31 (racemic) [Example 118, (rac)-4-chloro-12-(2,2-difluoroethyl)-3-ethyl-7-{3-[(6-fluoro-1-naphthyl)oxy]propyl}-2-methyl-10,11,12,13,14,15-hexahydro-2H-pyrazolo[3′,4′:8,9][1,4]diazacycloundecino[10,11,1-hi]indole-8-carboxylic acid] | 510 | 5.5e-07 | 330 | 6.4e-07 | 5.5e-07 | – | – | – | – | – | 5.1e-07 | – | IC50 [1]: 2.5e-06 M |
